Measured values as given in patent publication EP4640206A1, “NISIN FOR INHIBITING BIOFILMS” (SkyLab AG, priority 2024, dated 2025).

Tested on: multispecies biofilms
Assay: Follow-up observation of pH of washes of a laboratory model of multispecies biofilms in 10% sucrose
Assay type: cell-based
Conditions: for Value of pH decrease within 30 min. of measurement (%): compared to the initial value
Procedure: Example No. 3. Follow-up observation of pH of washes of a laboratory model of multispecies biofilms.
To perform this test, it was necessary to obtain multispecies biofilms of bacteria. A 72-well, round-bottom, polystyrene plate for titration was used as an adhesive surface for growing multispecies biofilms. The inner surface was processed with a round abrasive drill bit, with visual inspection of the procedure. Then the plate was washed and immersed into isopropyl alcohol for 10 min. followed by 3-fold washing in distilled water.
Saliva was collected in the fasting state by spitting into a sterile centrifuge tube. Saliva was used to prepare inoculum with the following composition: 96.5 ml of saliva, 1 ml of 10% sucrose, 3.5 ml of S.mutans suspension 0.8 units of McF.
To obtain biofilms, the prepared inoculum was poured 1 ml into all wells of the prepared plate, after which the wells were covered with a similar plate and sealed with parafilm film. The plate was placed on a shaker pad with variable surface slope placed in a CO2 incubator and incubated overnight (16 hours). The contents of the wells were then extracted with an aspirator by dipping the plastic tip into the center of the well until completely drained. 1 ml of soy-casein broth was added to all wells of the plate with an automatic pipette. The plate was placed into the incubator. The described cycle was repeated for four days.
Biofilm formation was monitored visually by gram staining. After four days, the contents of the wells were extracted with an aspirator. All 6 wells of the first row were filled with 1 ml of deionized water and left for 5 min. Water was extracted with an aspirator; 1 ml of the test drug was added into the wells, in 1 min. the drug was removed, the wells were filled for 1 min. with deionized water, then it was removed. 250 µl of 10% sucrose solution was added to the wells. The formed biofilms were scraped off with a disposable loop (10µl); the suspension of two neighboring wells was combined and transferred to three Eppendorfs. Sample combination allowed increasing the volume of the analyzed suspension sample up to 0.5 ml, which in turn allowed carrying out pH measurements in free volume with the necessary reserve at high density of biofilm culture of microorganisms and optimal time for the sample measurement procedure (20 sec.). After combination of the samples, pH was immediately measured. The measurement time points were 0, 1, 2, 3, 4, 5, 6, 6, 7, 8, 9, 10, 15,20,30 min. The results of pH changes in multispecies dental biofilms in the presence of sucrose under the influence of active ingredients are shown in Figure 3 and Tables 3-4. Table 3. Results of pH measurements of mechanically disrupted multispecies biofilms in 10% sucrose solution, follow-up (10% sucrose solution pH-6.98).

## NC(N)=O [Urea, reference compound]
Urea 0.5%, 0 min
  pH of mechanically disrupted multispecies biofilms: 6.4±0.006
Urea 0.5%, 1 min
  pH of mechanically disrupted multispecies biofilms: 6.4±0.006
Urea 0.5%, 1 min vs previous time point
  pH change (in brackets), multispecies biofilms: 0
Urea 0.5%, 2 min
  pH of mechanically disrupted multispecies biofilms: 6.4±0.006
Urea 0.5%, 2 min vs previous time point
  pH change (in brackets), multispecies biofilms: 0
Urea 0.5%, 3 min
  pH of mechanically disrupted multispecies biofilms: 6.4±0.006
Urea 0.5%, 3 min vs previous time point
  pH change (in brackets), multispecies biofilms: 0
Urea 0.5%, 4 min
  pH of mechanically disrupted multispecies biofilms: 6.41±0.006
Urea 0.5%, 4 min vs previous time point
  pH change (in brackets), multispecies biofilms: +0.01
Urea 0.5%, 5 min
  pH of mechanically disrupted multispecies biofilms: 6.42±0.006
Urea 0.5%, 5 min vs previous time point
  pH change (in brackets), multispecies biofilms: +0.01
Urea 0.5%, 6 min
  pH of mechanically disrupted multispecies biofilms: 6.44±0.006
Urea 0.5%, 6 min vs previous time point
  pH change (in brackets), multispecies biofilms: +0.02
Urea 0.5%, 7 min
  pH of mechanically disrupted multispecies biofilms: 6.45±0.006
Urea 0.5%, 7 min vs previous time point
  pH change (in brackets), multispecies biofilms: +0.01
Urea 0.5%, 8 min
  pH of mechanically disrupted multispecies biofilms: 6.43±0.02
Urea 0.5%, 8 min vs previous time point
  pH change (in brackets), multispecies biofilms: -0.02
Urea 0.5%, 9 min
  pH of mechanically disrupted multispecies biofilms: 6.43±0.0
Urea 0.5%, 9 min vs previous time point
  pH change (in brackets), multispecies biofilms: 0
Urea 0.5%, 10 min
  pH of mechanically disrupted multispecies biofilms: 6.42±0.0
Urea 0.5%, 10 min vs previous time point
  pH change (in brackets), multispecies biofilms: -0.01
Urea 0.5%, 15 min
  pH of mechanically disrupted multispecies biofilms: 6.25±0.01
Urea 0.5%, 15 min vs previous time point
  pH change (in brackets), multispecies biofilms: -0.17
Urea 0.5%, 20 min
  pH of mechanically disrupted multispecies biofilms: 6.18±0.02
Urea 0.5%, 20 min vs previous time point
  pH change (in brackets), multispecies biofilms: -0.07
Urea 0.5%, 30 min
  pH of mechanically disrupted multispecies biofilms: 5.97±0.02
Urea 0.5%, 30 min vs previous time point
  pH change (in brackets), multispecies biofilms: -0.21
Urea 0.5%
  Value of pH decrease within 30 min. of measurement (%): -6.7%

## Nisin
Nisin 0.004%, 0 min
  pH of mechanically disrupted multispecies biofilms: 6.32±0.006
Nisin 0.004%, 1 min
  pH of mechanically disrupted multispecies biofilms: 6.3±0.006
Nisin 0.004%, 1 min vs previous time point
  pH change (in brackets), multispecies biofilms: -0.02
Nisin 0.004%, 2 min
  pH of mechanically disrupted multispecies biofilms: 6.28±0.0
Nisin 0.004%, 2 min vs previous time point
  pH change (in brackets), multispecies biofilms: -0.02
Nisin 0.004%, 3 min
  pH of mechanically disrupted multispecies biofilms: 6.26±0.006
Nisin 0.004%, 3 min vs previous time point
  pH change (in brackets), multispecies biofilms: -0.02
Nisin 0.004%, 4 min
  pH of mechanically disrupted multispecies biofilms: 6.24±0.01
Nisin 0.004%, 4 min vs previous time point
  pH change (in brackets), multispecies biofilms: -0.02
Nisin 0.004%, 5 min
  pH of mechanically disrupted multispecies biofilms: 6.22±0.006
Nisin 0.004%, 5 min vs previous time point
  pH change (in brackets), multispecies biofilms: -0.02
Nisin 0.004%, 6 min
  pH of mechanically disrupted multispecies biofilms: 6.2±0.0
Nisin 0.004%, 6 min vs previous time point
  pH change (in brackets), multispecies biofilms: -0.02
Nisin 0.004%, 7 min
  pH of mechanically disrupted multispecies biofilms: 6.2±0.006
Nisin 0.004%, 7 min vs previous time point
  pH change (in brackets), multispecies biofilms: 0
Nisin 0.004%, 8 min
  pH of mechanically disrupted multispecies biofilms: 6.19±0.0
Nisin 0.004%, 8 min vs previous time point
  pH change (in brackets), multispecies biofilms: -0.01
Nisin 0.004%, 9 min
  pH of mechanically disrupted multispecies biofilms: 6.19±0.006
Nisin 0.004%, 9 min vs previous time point
  pH change (in brackets), multispecies biofilms: 0
Nisin 0.004%, 10 min
  pH of mechanically disrupted multispecies biofilms: 6.18±0.0
Nisin 0.004%, 10 min vs previous time point
  pH change (in brackets), multispecies biofilms: -0.01
Nisin 0.004%, 15 min
  pH of mechanically disrupted multispecies biofilms: 6.12±0.006
Nisin 0.004%, 15 min vs previous time point
  pH change (in brackets), multispecies biofilms: -0.06
Nisin 0.004%, 20 min
  pH of mechanically disrupted multispecies biofilms: 6.11±0.0
Nisin 0.004%, 20 min vs previous time point
  pH change (in brackets), multispecies biofilms: -0.01
Nisin 0.004%, 30 min
  pH of mechanically disrupted multispecies biofilms: 6.07±0.006
Nisin 0.004%, 30 min vs previous time point
  pH change (in brackets), multispecies biofilms: -0.04
Nisin 0.004%
  Value of pH decrease within 30 min. of measurement (%): -3.95%
Nisin 0.008%
  Value of pH decrease within 30 min. of measurement (%): -8.7%
Nisin 0,008%, 0 min
  pH of mechanically disrupted multispecies biofilms: 6.54±0.006
Nisin 0,008%, 1 min
  pH of mechanically disrupted multispecies biofilms: 6.45±0.006
Nisin 0,008%, 1 min vs previous time point
  pH change (in brackets), multispecies biofilms: -0.09
Nisin 0,008%, 2 min
  pH of mechanically disrupted multispecies biofilms: 6.4±0.006
Nisin 0,008%, 2 min vs previous time point
  pH change (in brackets), multispecies biofilms: -0.05
Nisin 0,008%, 3 min
  pH of mechanically disrupted multispecies biofilms: 6.35±0.006
Nisin 0,008%, 3 min vs previous time point
  pH change (in brackets), multispecies biofilms: -0.05
Nisin 0,008%, 4 min
  pH of mechanically disrupted multispecies biofilms: 6.3±0.006
Nisin 0,008%, 4 min vs previous time point
  pH change (in brackets), multispecies biofilms: -0.05
Nisin 0,008%, 5 min
  pH of mechanically disrupted multispecies biofilms: 6.22±0.01
Nisin 0,008%, 5 min vs previous time point
  pH change (in brackets), multispecies biofilms: -0.08
Nisin 0,008%, 6 min
  pH of mechanically disrupted multispecies biofilms: 6.16±0.006
Nisin 0,008%, 6 min vs previous time point
  pH change (in brackets), multispecies biofilms: -0.06
Nisin 0,008%, 7 min
  pH of mechanically disrupted multispecies biofilms: 6.1±0.01
Nisin 0,008%, 7 min vs previous time point
  pH change (in brackets), multispecies biofilms: -0.06
Nisin 0,008%, 8 min
  pH of mechanically disrupted multispecies biofilms: 6.0±0.02
Nisin 0,008%, 8 min vs previous time point
  pH change (in brackets), multispecies biofilms: -0.1
Nisin 0,008%, 9 min
  pH of mechanically disrupted multispecies biofilms: 5.99±0.006
Nisin 0,008%, 9 min vs previous time point
  pH change (in brackets), multispecies biofilms: -0.01
Nisin 0,008%, 10 min
  pH of mechanically disrupted multispecies biofilms: 5.98±0.0
Nisin 0,008%, 10 min vs previous time point
  pH change (in brackets), multispecies biofilms: -0.01
Nisin 0,008%, 15 min
  pH of mechanically disrupted multispecies biofilms: 5.97±0.006
Nisin 0,008%, 15 min vs previous time point
  pH change (in brackets), multispecies biofilms: -0.01
Nisin 0,008%, 20 min
  pH of mechanically disrupted multispecies biofilms: 5.96±0.006
Nisin 0,008%, 20 min vs previous time point
  pH change (in brackets), multispecies biofilms: -0.01
Nisin 0,008%, 30 min
  pH of mechanically disrupted multispecies biofilms: 5.97±0.006
Nisin 0,008%, 30 min vs previous time point
  pH change (in brackets), multispecies biofilms: +0.01
Nisin 0.004 and 0.008%
  effect on the value of acidity in the multispecies biofilm affected by sucrose: stabilizing effect
